From US20240182445A1 (ONO PHARMACEUTICAL CO., LTD., priority 2019, published 2024)

Molecular target: T1, human TREK-1 (Homo sapiens, UniProt O95069)
T1 construct: expressed in transfected cells
T1 sequence (O95069 1-426): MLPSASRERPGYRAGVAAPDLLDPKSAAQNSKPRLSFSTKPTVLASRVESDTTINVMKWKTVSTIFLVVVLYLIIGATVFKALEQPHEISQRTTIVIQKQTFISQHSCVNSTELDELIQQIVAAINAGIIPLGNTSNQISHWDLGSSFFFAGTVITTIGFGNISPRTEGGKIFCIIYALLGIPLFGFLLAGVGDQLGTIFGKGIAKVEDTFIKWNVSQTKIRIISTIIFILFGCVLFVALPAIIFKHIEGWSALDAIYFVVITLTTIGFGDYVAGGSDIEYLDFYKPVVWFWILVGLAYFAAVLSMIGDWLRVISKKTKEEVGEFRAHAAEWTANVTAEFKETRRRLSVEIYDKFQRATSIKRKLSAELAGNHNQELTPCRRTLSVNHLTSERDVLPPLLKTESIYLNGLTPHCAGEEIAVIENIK
Experiment: TREK-1 Thallium (Tl+) flux assay, Method 1
Format: cell-based
Details: TREK-1 Thallium (Tl+) flux assay; values without footnote *12 are Method 1
Procedure, shortened: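 Readout: Thallos fluorescence ratio, taken 25 s post-thallium relative to the pre-thallium baseline average, then converted to % inhibition. Cells were CHO-K1 stably expressing human TREK-1, dye-loaded and exposed to test compound (vehicle 0.3% DMSO) for 10 min prior to thallium stimulation.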

Compound `CCNC(=O)N1CCC(n2ncc(Cl)c2C(=O)Nc2ncc(C#Cc3cccc(F)c3)cc2C)CC1` [Compound 75, 4-(4-chloro-5-((5-((3-fluorophenyl)ethynyl)-3-methylpyridin-2-yl)carbamoyl)-1H-pyrazol-1-yl)-N-ethylpiperidine-1-carboxamide] has an IC50 of 160 nM.
For `Cc1cc(C#Cc2cccs2)cnc1NC(=O)c1c(Cl)cnn1CC1CCN(C(=O)C(C)C)CC1` [Compound 76, 4-chloro-1-((1-isobutyrylpiperidin-4-yl)methyl)-N-(3-methyl-5-(thiophen-2-ylethynyl)pyridin-2-yl)-1H-pyrazole-5-carboxamide], the IC50 was 160 nM.
`Cc1cc(C#Cc2ccccc2)cnc1NC(=O)c1c(Cl)cnn1C(C)C1CCN(C(=O)OC(C)(C)C)CC1` (stereo not shown) [Compound 77, tert-butyl 4-(1-(4-chloro-5-((3-methyl-5-(phenylethynyl)pyridin-2-yl)carbamoyl)-1H-pyrazol-1-yl)ethyl)piperidine-1-carboxylate] gave an IC50 of 160 nM.
`CC(C1CCN(C(=O)OC(C)(C)C)CC1)n1ncc(Cl)c1C(=O)Nc1ncc(C#Cc2ccccc2)cc1F` (stereo not shown) [Compound 78, tert-butyl 4-(1-(4-chloro-5-((3-fluoro-5-(phenylethynyl)pyridin-2-yl)carbamoyl)-1H-pyrazol-1-yl)ethyl)piperidine-1-carboxylate] showed an IC50 of 160 nM.
With `Cc1cc(C#Cc2ccccc2)cnc1NC(=O)c1c(Cl)cnn1C1CCN(C(=O)C2CC2)C1` (stereo not shown) [Compound 79, 4-chloro-1-(1-(cyclopropanecarbonyl)pyrrolidin-3-yl)-N-(3-methyl-5-(phenylethynyl)pyridin-2-yl)-1H-pyrazole-5-carboxamide] the IC50 was 160 nM.
Work on `Cc1cc(C#Cc2ccccc2)cnc1NC(=O)c1c(Cl)cnn1C1CCN(C(=O)C2COCCO2)C1` (stereo not shown) [Compound 80, 1-(1-(1,4-dioxane-2-carbonyl)pyrrolidin-3-yl)-4-chloro-N-(3-methyl-5-(phenylethynyl)pyridin-2-yl)-1H-pyrazole-5-carboxamide] yielded an IC50 of 160 nM.
Compound `Cc1cc(C#Cc2ccccc2)cnc1NC(=O)c1c(Cl)cnn1C1CN(C(=O)C2COCCO2)C1` (stereo not shown) [Compound 81, 1-(1-(1,4-dioxane-2-carbonyl)azetidin-3-yl)-4-chloro-N-(3-methyl-5-(phenylethynyl)pyridin-2-yl)-1H-pyrazole-5-carboxamide] has an IC50 of 160 nM.
`CC(=O)N1CC[C@H](Cn2ncc(Cl)c2C(=O)Nc2ncc(C#Cc3ccccc3)cc2C)[C@H](F)C1` [Compound 82, 1-(((3S,4R)-1-acetyl-3-fluoropiperidin-4-yl)methyl)-4-chloro-N-(3-methyl-5-(phenylethynyl)pyridin-2-yl)-1H-pyrazole-5-carboxamide] was tested, and the IC50 was 160 nM.
With `CC(C)(C)OC(=O)N1CCC(C#N)(Cn2ncc(Cl)c2C(=O)Nc2ncc(C#Cc3ccccc3)cc2F)CC1` [Compound 83, tert-butyl 4-((4-chloro-5-((3-fluoro-5-(phenylethynyl)pyridin-2-yl)carbamoyl)-1H-pyrazol-1-yl)methyl)-4-cyanopiperidine-1-carboxylate] the IC50 was 160 nM.
`CC(=O)N1CCC(C#N)(Cn2ncc(Cl)c2C(=O)Nc2ncc(C#Cc3ccccc3)cc2C)CC1` [Compound 84, 1-((1-acetyl-4-cyanopiperidin-4-yl)methyl)-4-chloro-N-(3-methyl-5-(phenylethynyl)pyridin-2-yl)-1H-pyrazole-5-carboxamide] was tested, and the IC50 was 160 nM.
Work on `CC(=O)N1CCC(Cn2ncc(Cl)c2C(=O)Nc2ncc(C#Cc3ccccc3)cc2C)CC1` [Compound 85, 1-((1-acetylpiperidin-4-yl)methyl)-4-chloro-N-(3-methyl-5-(phenylethynyl)pyridin-2-yl)-1H-pyrazole-5-carboxamide] yielded an IC50 of 170 nM.
`Cc1cc(C#Cc2ccccc2)cnc1NC(=O)c1c(Cl)cnn1C1CN(C(=O)C2CC2)C1` [Compound 87, 4-chloro-1-(1-(cyclopropanecarbonyl)azetidin-3-yl)-N-(3-methyl-5-(phenylethynyl)pyridin-2-yl)-1H-pyrazole-5-carboxamide] gave an IC50 of 170 nM.
In the case of `CC(=O)N1CC[C@@H](Cn2ncc(Cl)c2C(=O)Nc2ncc(C#Cc3ccccc3)cc2F)[C@@H](F)C1` [Compound 88, 1-(((3R,4S)-1-acetyl-3-fluoropiperidin-4-yl)methyl)-4-chloro-N-(3-fluoro-5-(phenylethynyl)pyridin-2-yl)-1H-pyrazole-5-carboxamide], the IC50 is reported as 170 nM.
For `Cc1cc(C#Cc2cccs2)cnc1NC(=O)c1c(Cl)cnn1[C@H]1CCOC1` [Compound 89, (S)-4-chloro-N-(3-methyl-5-(thiophen-2-ylethynyl)pyridin-2-yl)-1-(tetrahydrofuran-3-yl)-1H-pyrazole-5-carboxamide], the IC50 was 180 nM.
Work on `CCNC(=O)N1CCC(n2ncc(Cl)c2C(=O)Nc2ncc(C#Cc3ccccc3)cc2C)CC1` [Compound 90, 4-(4-chloro-5-((3-methyl-5-(phenylethynyl)pyridin-2-yl)carbamoyl)-1H-pyrazol-1-yl)-N-ethylpiperidine-1-carboxamide] yielded an IC50 of 180 nM.
For `CC1CC1C(=O)N1CCC(n2ncc(Cl)c2C(=O)Nc2ncc(C#Cc3ccccc3)cc2F)CC1` (stereo not shown) [Compound 91, 4-chloro-N-(3-fluoro-5-(phenylethynyl)pyridin-2-yl)-1-(1-(2-methylcyclopropane-1-carbonyl)piperidin-4-yl)-1H-pyrazole-5-carboxamide], the IC50 was 180 nM.
For `CCNC(=O)N1CCC(n2ncc(Cl)c2C(=O)Nc2ncc(C#Cc3ccc(F)cc3)cc2C)CC1` [Compound 92, 4-(4-chloro-5-((5-((4-fluorophenyl)ethynyl)-3-methylpyridin-2-yl)carbamoyl)-1H-pyrazol-1-yl)-N-ethylpiperidine-1-carboxamide], the IC50 was 180 nM.
For `CC(=O)N1CC(Cn2ncc(Cl)c2C(=O)Nc2ncc(C#Cc3ccccc3)cc2F)C1` [Compound 93, 1-((1-acetylazetidin-3-yl)methyl)-4-chloro-N-(3-fluoro-5-(phenylethynyl)pyridin-2-yl)-1H-pyrazole-5-carboxamide], the IC50 was 180 nM.
`CC(=O)N[C@H]1C[C@@H](n2ncc(Cl)c2C(=O)Nc2ncc(C#Cc3ccccc3)cc2F)C1` [Compound 94, 1-(cis-3-acetamidocyclobutyl)-4-chloro-N-(3-fluoro-5-(phenylethynyl)pyridin-2-yl)-1H-pyrazole-5-carboxamide] gave an IC50 of 180 nM.
For `O=C(Nc1ncc(C#Cc2cccs2)cc1F)c1c(Cl)cnn1C1CCN(C(=O)C2COCCO2)CC1` (stereo not shown) [Compound 95, 1-(1-(1,4-dioxane-2-carbonyl)piperidin-4-yl)-4-chloro-N-(3-fluoro-5-(thiophen-2-ylethynyl)pyridin-2-yl)-1H-pyrazole-5-carboxamide], the IC50 was 180 nM.
`Cc1cc(C#Cc2ccc(F)cc2)cnc1NC(=O)c1c(Cl)cnn1CCN1CCN(C(=O)C2CC2)CC1` [Compound 96, 4-chloro-1-(2-(4-(cyclopropanecarbonyl)piperazin-1-yl)ethyl)-N-(5-((4-fluorophenyl)ethynyl)-3-methylpyridin-2-yl)-1H-pyrazole-5-carboxamide] showed an IC50 of 180 nM.
In the case of `Cc1cc(C#Cc2cccs2)cnc1NC(=O)c1c(Cl)cnn1C1CC2(C1)CN(C(=O)C1COCCO1)C2` (stereo not shown) [Compound 97, 1-(2-(1,4-dioxane-2-carbonyl)-2-azaspiro[3.3]heptan-6-yl)-4-chloro-N-(3-methyl-5-(thiophen-2-ylethynyl)pyridin-2-yl)-1H-pyrazole-5-carboxamide], the IC50 is reported as 180 nM.
With `CC(=O)N1CCC(Cn2ncc(Cl)c2C(=O)Nc2ncc(C#Cc3ccccc3)cc2C)C(F)(F)C1` (stereo not shown) [Compound 98, 1-((1-acetyl-3,3-difluoropiperidin-4-yl)methyl)-4-chloro-N-(3-methyl-5-(phenylethynyl)pyridin-2-yl)-1H-pyrazole-5-carboxamide] the IC50 was 180 nM.
`CC(=O)N1CC[C@H](n2ncc(Cl)c2C(=O)Nc2ncc(C#Cc3ccccc3)cc2C)[C@H](F)C1` [Compound 99, 1-((3R,4S)-1-acetyl-3-fluoropiperidin-4-yl)-4-chloro-N-(3-methyl-5-(phenylethynyl)pyridin-2-yl)-1H-pyrazole-5-carboxamide] gave an IC50 of 180 nM.
Compound `CC(C)(C)C(=O)N1CCC(n2ncc(Cl)c2C(=O)Nc2ncc(C#Cc3ccccc3)cc2F)CC1` [Compound 100, 4-chloro-N-(3-fluoro-5-(phenylethynyl)pyridin-2-yl)-1-(1-pivaloylpiperidin-4-yl)-1H-pyrazole-5-carboxamide] has an IC50 of 190 nM.
`Cc1cc(C#Cc2ccc(F)cc2)cnc1NC(=O)c1c(Cl)cnn1C1CCN(C(=O)C2CC2)CC1` [Compound 101, 4-chloro-1-(1-(cyclopropanecarbonyl)piperidin-4-yl)-N-(5-((4-fluorophenyl)ethynyl)-3-methylpyridin-2-yl)-1H-pyrazole-5-carboxamide] gave an IC50 of 190 nM.
`CC(=O)N1CCC(CCn2ncc(Cl)c2C(=O)Nc2ncc(C#Cc3ccccc3)cc2F)CC1` [Compound 102, 1-(2-(1-acetylpiperidin-4-yl)ethyl)-4-chloro-N-(3-fluoro-5-(phenylethynyl)pyridin-2-yl)-1H-pyrazole-5-carboxamide] showed an IC50 of 190 nM.
Work on `Cc1cc(C#Cc2cccs2)cnc1NC(=O)c1c(Cl)cnn1CC1CCN(C(=O)C2COCCO2)CC1` (stereo not shown) [Compound 103, 1-((1-(1,4-dioxane-2-carbonyl)piperidin-4-yl)methyl)-4-chloro-N-(3-methyl-5-(thiophen-2-ylethynyl)pyridin-2-yl)-1H-pyrazole-5-carboxamide] yielded an IC50 of 190 nM.
